Data published in patent publication US6737383B1, “Herbicidal oxadiazolidines” (priority 1999, dated 2004).

Experiments:
wild oat = experiment: Test E wild oat; type: in vivo, Avena fatua; settings: Preemergence
sandbur = experiment: Test D sandbur; type: in vivo, Cenchrus echinatus; settings: Postemergence, 0 to 100 scale
Green foxtail [1] = experiment: Test D green foxtail; type: in vivo; settings: Postemergence, 0 to 100 scale, 0 no injury, 100 complete control
Green foxtail [2] = experiment: Test D green foxtail; type: in vivo; settings: Postemergence, 0 to 100 scale, 0 no injury, 100 complete control; remark: listed apart in the source
blackgrass [3] = experiment: Test E blackgrass; type: in vivo, Alopecurus myosuroides; settings: Preemergence
winter barley = experiment: Test E winter barley; type: in vivo, Hordeum vulgare; settings: Preemergence
winter wheat [4] = experiment: Test E winter wheat; type: in vivo, Triticum aestivum; settings: Preemergence
bamyardgrass = experiment: Test B flood test barnyardgrass; type: in vivo, Echinochloa crus-galli
Outline: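 Each value is a visual injury score relative to controls, with 10 meaning complete control and 0 no effect. Evaluation took place twelve to sixteen days after the 2-leaf-stage plants were treated and kept in the greenhouse.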

blackgrass [5] = experiment: Test B pre/postemergence blackgrass; type: in vivo, Alopecurus myosuroides
Outline: (§1)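 Response is a visual 0-to-10 score relative to untreated plants, where 0 means no effect and 10 means complete control, taken twelve to sixteen days after application. Treatments went onto soil at planting and onto foliage of 1- to 4-leaf plants, using a surfactant-containing non-phytotoxic solvent.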

morningglory = experiment: Test B pre/postemergence morningglory; type: in vivo, Ipomoea hederacea
Outline: as §1

Italian ryegrass = experiment: Test E Italian ryegrass; type: in vivo, Lolium multiflorum; settings: Preemergence
green foxtail [6] = experiment: Test E green foxtail; type: in vivo, Setaria viridis; settings: Preemergence
winter wheat [7] = experiment: Test E winter wheat; type: in vivo, Triticum aestivum; settings: Postemergence; for Plant response rating, Wheat (winter): 0 to 100 scale, 0 is no effect, 100 is complete control
Outline: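 Plants were grown under normal greenhouse practice; for postemergence, in sandy loam soil mixed 60:40 with potting mix, treated at the 1- to 4-leaf stage. The compound was in a non-phytotoxic solvent carrying a surfactant. After roughly 21 to 28 days plants were scored visually against untreated plants.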

crabgrass = experiment: Test B pre/postemergence crabgrass; type: in vivo, Digitaria sanguinalis
Outline: as §1

[8] = Rate 125 g/ha, 0 to 100 scale (0 no effect, 100 complete control)
[9] = Rate 500 g/ha, 0 to 100 scale where 0 is no effect and 100 is complete control
[10] = Preemergence, Rate 62 g/ha, scale of 0 to 10 where 0 is no effect and 10 is complete control
[11] = Preemergence, Rate 250 g/ha, scale of 0 to 10 where 0 is no effect and 10 is complete control
[12] = Preemergence, Rate 500 g/ha, scale of 0 to 10 where 0 is no effect and 10 is complete control
[13] = Rate 62 g/ha, Postemergence, scale of 0 to 10 where 0 is no effect and 10 is complete control
[14] = Rate 125 g/ha, Preemergence, scale of 0 to 10 where 0 is no effect and 10 is complete control
[15] = Rate 500 g/ha, Postemergence, scale 0 to 10, 0 no effect, 10 complete control

SMILES: CC(C)N(C(=O)n1oc(=O)n(C2CC2)c1=O)c1ccccc1 [Compound 243]
- Plant response rating, Wild oat (wild oat; [8]): 60
- Wild oat plant response rating (0 to 100 scale) (wild oat; Rate 250 g/ha): 55
- Plant response rating, Wild oat (wild oat; [9]): 90
- Plant response rating, Sandbur (sandbur; Rate 16 g/ha, 0 no injury, 100 complete control): 10
- Plant response rating, Sandbur (sandbur; Rate 32 g/ha, 0 no injury, 100 complete control): 20
- Sandbur plant response rating (sandbur; Rate 64 g/ha, 0 no injury, 100 complete control): 30
- Sandbur plant response rating (sandbur; Rate 125 g/ha, 0 no injury, 100 complete control): 30
- Plant response rating, Sandbur (sandbur; Rate 250 g/ha): 100
- Green foxtail plant response rating (Green foxtail [1]; Rate 64 g/ha): 100
- Green foxtail plant response rating (Green foxtail [1]; Rate 125 g/ha): 100
- Plant response rating, Green foxtail (Green foxtail [2]; Rate 64 g/ha): 100
- Plant response rating, Green foxtail (Green foxtail [2]; Rate 125 g/ha): 100
- Plant response rating, Blackgrass (blackgrass [3]; [8]): 65
- Blackgrass plant response rating (0 to 100 scale) (blackgrass [3]; Rate 250 g/ha): 85
- Plant response rating, Blackgrass (blackgrass [3]; [9]): 100
- Plant response rating, Barley (winter) (winter barley; [8]): 30
- Barley (winter) plant response rating (0 to 100 scale) (winter barley; Rate 250 g/ha): 60
- Plant response rating, Barley (winter) (winter barley; [9]): 70
- Plant response rating, Wheat (winter) (winter wheat [4]; [8]): 50
- Wheat (winter) plant response rating (0 to 100 scale) (winter wheat [4]; Rate 250 g/ha): 70
- Plant response rating, Wheat (winter) (winter wheat [4]; [9]): 75
- Barnyardgrass plant response rating (bamyardgrass; Rate 62 g/ha, headed Pre-emergence (flood test species), scale 0 to 10 (0 no effect, 10 complete control)): 0
- Barnyardgrass plant response rating (bamyardgrass; Rate 125 g/ha, Pre-emergence, flood test species, scale 0 to 10 where 0 is no effect and 10 is complete control): 0
- Barnyardgrass plant response rating (bamyardgrass; Rate 250 g/ha, Pre-emergence, flood-test species, scale 0 to 10, 0 is no effect, 10 is complete control): 0
- Barnyardgrass plant response rating (bamyardgrass; Rate 500 g/ha, Pre-emergence, flood test species, scale 0 to 10 (0 no effect, 10 complete control)): 0
- Blackgrass plant response rating (blackgrass [5]; [10]): 8
- Blackgrass plant response rating (blackgrass [5]; [11]): 10
- Plant response rating, Blackgrass (blackgrass [5]; [12]): 10
- Blackgrass plant response rating (blackgrass [5]; [13]): 7
- Blackgrass plant response rating (blackgrass [5]; Rate 125 g/ha, Postemergence, scale 0 to 10): 8
- Blackgrass plant response rating (blackgrass [5]; [14]): 10
- Plant response rating (0 to 10; 0 is no effect, 10 is complete control), Blackgrass (blackgrass [5]; Rate 250 g/ha, Postemergence): 9
- Blackgrass plant response rating (blackgrass [5]; [15]): 9
- Morningglory plant response rating (morningglory; [10]): 2
- Morningglory plant response rating (morningglory; [11]): 8
- Plant response rating, Morningglory (morningglory; [12]): 10
- Morningglory plant response rating (morningglory; [13]): 5
- Morningglory plant response rating (morningglory; [14]): 3
- Plant response rating (0 to 10; 0 is no effect, 10 is complete control), Morningglory (morningglory; Rate 250 g/ha, Postemergence): 7
- Morningglory plant response rating (morningglory; [15]): 8
- Plant response rating, I. Ryegrass (Italian ryegrass; [8]): 70
- I. Ryegrass plant response rating (0 to 100 scale) (Italian ryegrass; Rate 250 g/ha): 85
- Plant response rating, I. Ryegrass (Italian ryegrass; [9]): 100
- Plant response rating, Green foxtail (green foxtail [6]; [8]): 75
- Green foxtail plant response rating (0 to 100 scale) (green foxtail [6]; Rate 250 g/ha): 100
- Plant response rating, Green foxtail (green foxtail [6]; [9]): 100
- Plant response rating, Wheat (winter) (winter wheat [7]; Rate 125 g/ha): 70
- Wheat (winter) plant response rating (winter wheat [7]; Rate 250 g/ha, 0 to 100 scale where 0 is no effect and 100 is complete control): 75
- Plant response rating, Wheat (winter) (winter wheat [7]; Rate 500 g/ha): 80
- Crabgrass plant response rating (crabgrass; [10]): 7
- Crabgrass plant response rating (crabgrass; [11]): 9
- Plant response rating, Crabgrass (crabgrass; [12]): 10
- Crabgrass plant response rating (crabgrass; [13]): 3
- Crabgrass plant response rating (crabgrass; [14]): 8
- Plant response rating (0 to 10; 0 is no effect, 10 is complete control), Crabgrass (crabgrass; Rate 250 g/ha, Postemergence): 9
- Crabgrass plant response rating (crabgrass; [15]): 9
